ChEMBL document CHEMBL2202996, “Synthesis, evaluation, and radiolabeling of new potent positive allosteric modulators of the metabotropic glutamate receptor 2 as potential tracers for positron emission tomography imaging” (J Med Chem, 2012)

Assays:
Cortex [1] = assay: Biodistribution in iv dosed Wistar rat cortex measured at 2 mins post administration by gamma counting; assay type: ADME, organism-based; conditions: in vivo
Hippocampus [2] = assay: Biodistribution in iv dosed Wistar rat hippocampus measured at 60 mins post administration by gamma counting; assay type: ADME, organism-based; conditions: in vivo, 1 h
Liver = assay: Biodistribution in Wistar rat liver at 22 Mbq, iv measured at 60 mins post administration by gamma counting; assay type: ADME, organism-based; conditions: in vivo, 1 h
Hippocampus [3] = assay: Biodistribution in iv dosed Wistar rat hippocampus measured at 2 mins post administration by gamma counting; assay type: ADME, organism-based; conditions: in vivo
Cerebrum [4] = assay: Biodistribution in iv dosed Wistar rat cerebrum measured at 2 mins post administration by gamma counting; assay type: ADME, organism-based; conditions: in vivo
Cortex [5] = assay: Biodistribution in iv dosed Wistar rat cortex measured at 60 mins post administration by gamma counting; assay type: ADME, organism-based; conditions: in vivo, 1 h
Cerebrum [6] = assay: Biodistribution in Wistar rat cerebrum at 22 Mbq, iv measured at 2 mins post administration by gamma counting; assay type: ADME, organism-based; conditions: in vivo
Hippocampus [7] = assay: Biodistribution in Wistar rat hippocampus at 41 MBq, iv measured at 12 to 28 mins post administration by microPET imaging; assay type: ADME, organism-based; conditions: in vivo
Brain [8] = assay: Biodistribution in Wistar rat brain at 41 MBq, iv measured at 12 mins post administration by microPET imaging; assay type: ADME, organism-based; conditions: in vivo, 0.2 h
Rattus norvegicus = assay: Biodistribution in Wistar rat urinary system at 22 Mbq, iv measured at 60 mins post administration by gamma counting; assay type: ADME, organism-based, Urine; conditions: in vivo, 1 h
Cortex [9] = assay: Ratio of SUV in cortex in iv dosed Wistar at 2 mins post administration by gamma counting to SUV in cortex in iv dosed Wistar at 30 mins post administration by gamma counting; assay type: ADME, organism-based; conditions: rat, in vivo
Cortex [10] = assay: Biodistribution in Wistar rat cortex at 41 MBq, iv measured at 12 to 28 mins post administration by microPET imaging in presence of JNJ-40068782; assay type: ADME, organism-based; conditions: in vivo
Cerebellum [11] = assay: Biodistribution in iv dosed Wistar rat cerebellum measured at 30 mins post administration by gamma counting; assay type: ADME, organism-based; conditions: in vivo, 0.5 h
[12] = Metabolic stability in Wistar rat cerebrum assessed as intact tracer at 74 MBq, iv measured at 30 mins post administration by gamma counting; assay type: ADME, organism-based; conditions: read-out: Stability
Brain [13] = assay: Biodistribution in iv dosed Wistar rat total brain measured at 60 mins post administration by gamma counting; assay type: ADME, organism-based; conditions: in vivo, 1 h
Blood [14] = assay: Biodistribution in iv dosed Wistar rat blood measured at 2 mins post administration by gamma counting; assay type: ADME, organism-based; conditions: in vivo
Cerebellum [15] = assay: Biodistribution in Wistar rat cerebellum at 41 MBq, iv measured at 12 to 28 mins post administration by microPET imaging; assay type: ADME, organism-based; conditions: in vivo
Cerebrum [16] = assay: Biodistribution in iv dosed Wistar rat cerebrum measured at 30 mins post administration by gamma counting; assay type: ADME, organism-based; conditions: in vivo, 0.5 h
Striatum [17] = assay: Biodistribution in iv dosed Wistar rat striatum measured at 60 mins post administration by gamma counting; assay type: ADME, organism-based; conditions: in vivo, 1 h
Cerebellum [18] = assay: Biodistribution in Wistar rat cerebellum at 22 Mbq, iv measured at 2 mins post administration by gamma counting; assay type: ADME, organism-based; conditions: in vivo
Striatum [19] = assay: Biodistribution in iv dosed Wistar rat striatum measured at 2 mins post administration by gamma counting; assay type: ADME, organism-based; conditions: in vivo
Cerebrum [20] = assay: Ratio of SUV in cerebrum in iv dosed Wistar at 2 mins post administration by gamma counting to SUV in cerebrum in iv dosed Wistar at 30 mins post administration by gamma counting; assay type: ADME, organism-based; conditions: rat, in vivo
Cortex [21] = assay: Biodistribution in Wistar rat cortex at 41 MBq, iv measured at 12 to 28 mins post administration by microPET imaging; assay type: ADME, organism-based; conditions: in vivo
Blood [22] = assay: Biodistribution in Wistar rat blood at 22 Mbq, iv measured at 2 mins post administration by gamma counting; assay type: ADME, organism-based; conditions: in vivo
Striatum [23] = assay: Ratio of SUV in striatum in iv dosed Wistar at 2 mins post administration by gamma counting to SUV in striatum in iv dosed Wistar at 30 mins post administration by gamma counting; assay type: ADME, organism-based; conditions: rat, in vivo
Thalamus [24] = assay: Biodistribution in Wistar rat thalamus at 41 MBq, iv measured at 12 to 28 mins post administration by microPET imaging in presence of JNJ-40068782; assay type: ADME, organism-based; conditions: in vivo
Brain [25] = assay: Biodistribution in iv dosed Wistar rat total brain measured at 2 mins post administration by gamma counting; assay type: ADME, organism-based; conditions: in vivo
Hippocampus [26] = assay: Biodistribution in Wistar rat hippocampus at 41 MBq, iv measured at 12 to 28 mins post administration by microPET imaging in presence of JNJ-40068782; assay type: ADME, organism-based; conditions: in vivo
Brain [27] = assay: Biodistribution in Wistar rat brain at 22 Mbq, iv measured at 2 mins post administration by gamma counting; assay type: ADME, organism-based; conditions: in vivo
Brain [28] = assay: Biodistribution in iv dosed Wistar rat total brain measured at 30 mins post administration by gamma counting; assay type: ADME, organism-based; conditions: in vivo, 0.5 h
Blood [29] = assay: Biodistribution in Wistar rat blood at 22 Mbq, iv measured at 60 mins post administration by gamma counting; assay type: ADME, organism-based; conditions: in vivo, 1 h
[30] = Metabolic stability in Wistar rat cerebellum assessed as intact tracer at 74 MBq, iv measured at 30 mins post administration by gamma counting; assay type: ADME, organism-based; conditions: read-out: Stability
Cerebellum [31] = assay: Biodistribution in iv dosed Wistar rat cerebellum measured at 2 mins post administration by gamma counting; assay type: ADME, organism-based; conditions: in vivo
Striatum [32] = assay: Biodistribution in iv dosed Wistar rat striatum measured at 30 mins post administration by gamma counting; assay type: ADME, organism-based; conditions: in vivo, 0.5 h
Hippocampus [33] = assay: Biodistribution in iv dosed Wistar rat hippocampus measured at 30 mins post administration by gamma counting; assay type: ADME, organism-based; conditions: in vivo, 0.5 h
Striatum [34] = assay: Biodistribution in Wistar rat striatum at 41 MBq, iv measured at 12 to 28 mins post administration by microPET imaging; assay type: ADME, organism-based; conditions: in vivo
Intestine = assay: Biodistribution in Wistar rat intestine at 22 Mbq, iv measured at 60 mins post administration by gamma counting; assay type: ADME, organism-based; conditions: in vivo, 1 h
Cerebrum [35] = assay: Biodistribution in iv dosed Wistar rat cerebrum measured at 60 mins post administration by gamma counting; assay type: ADME, organism-based; conditions: in vivo, 1 h
Brain [36] = assay: Biodistribution in Wistar rat brain at 41 MBq, iv measured at 27 mins post administration by microPET imaging; assay type: ADME, organism-based; conditions: in vivo, 0.45 h
Brain [37] = assay: Ratio of SUV in total brain in iv dosed Wistar at 2 mins post administration by gamma counting to SUV in total brain in iv dosed Wistar at 30 mins post administration by gamma counting; assay type: ADME, organism-based; conditions: rat, in vivo
Cerebellum [38] = assay: Ratio of SUV in cerebellum in iv dosed Wistar at 2 mins post administration by gamma counting to SUV in cerebellum in iv dosed Wistar at 30 mins post administration by gamma counting; assay type: ADME, organism-based; conditions: rat, in vivo
Cerebellum [39] = assay: Biodistribution in iv dosed Wistar rat cerebellum measured at 60 mins post administration by gamma counting; assay type: ADME, organism-based; conditions: in vivo, 1 h
Thalamus [40] = assay: Biodistribution in Wistar rat thalamus at 41 MBq, iv measured at 12 to 28 mins post administration by microPET imaging; assay type: ADME, organism-based; conditions: in vivo
Cortex [41] = assay: Biodistribution in iv dosed Wistar rat cortex measured at 30 mins post administration by gamma counting; assay type: ADME, organism-based; conditions: in vivo, 0.5 h
Cerebellum [42] = assay: Biodistribution in Wistar rat cerebellum at 41 MBq, iv measured at 12 to 28 mins post administration by microPET imaging in presence of JNJ-40068782; assay type: ADME, organism-based; conditions: in vivo
Blood [43] = assay: Biodistribution in iv dosed Wistar rat blood measured at 30 mins post administration by gamma counting; assay type: ADME, organism-based; conditions: in vivo, 0.5 h
Hippocampus [44] = assay: Ratio of SUV in hippocampus in iv dosed Wistar at 2 mins post administration by gamma counting to SUV in hippocampus in iv dosed Wistar at 30 mins post administration by gamma counting; assay type: ADME, organism-based; conditions: rat, in vivo
Striatum [45] = assay: Biodistribution in Wistar rat striatum at 41 MBq, iv measured at 12 to 28 mins post administration by microPET imaging in presence of JNJ-40068782; assay type: ADME, organism-based; conditions: in vivo
Blood [46] = assay: Biodistribution in iv dosed Wistar rat blood measured at 60 mins post administration by gamma counting; assay type: ADME, organism-based; conditions: in vivo, 1 h
[47] = Metabolic stability in Wistar rat plasma assessed as intact tracer at 74 MBq, iv measured at 30 mins post administration by gamma counting; assay type: ADME, organism-based; conditions: read-out: Stability

SUV (Cortex [1]): 1.46 | SUV (Hippocampus [2]): 0.73 | Drug uptake (Liver): 35.7% | SUV (Hippocampus [3]): 0.9 | SUV (Cerebrum [4]): 1.32 | SUV (Cortex [5]): 1.28 | Drug uptake (Cerebrum [6]): 0.69 %ID | Drug uptake (Hippocampus [7]): Active | SUV (Brain [8]): 1.7 | Drug uptake (Rattus norvegicus): 2.4 %ID | Ratio (Cortex [9]): 0.82 | Drug uptake (Cortex [10]): Not Active | SUV (Cerebellum [11]): 2.62 | remaining at 0.5 h [12]: 90.3% | SUV (Brain [13]): 1.18 | SUV (Blood [14]): 0.61 | Drug uptake (Cerebellum [15]): Active | SUV (Cerebrum [16]): 1.96 | SUV (Striatum [17]): 1.72 | Drug uptake (Cerebellum [18]): 0.17 %ID | SUV (Striatum [19]): 1.22 | Ratio (Cerebrum [20]): 0.67 | Drug uptake (Cortex [21]): Active | Drug uptake (Blood [22]): 4.3 %ID | Ratio (Striatum [23]): 0.57 | Drug uptake (Thalamus [24]): Not Active | SUV (Brain [25]): 1.39 | Drug uptake (Hippocampus [26]): Not Active | Drug uptake (Brain [27]): 0.88 %ID | SUV (Brain [28]): 2.13 | Drug uptake (Blood [29]): 2 %ID | remaining at 0.5 h [30]: 95.5% | SUV (Cerebellum [31]): 1.59 | SUV (Striatum [32]): 2.14 | SUV (Hippocampus [33]): 1.49 | Drug uptake (Striatum [34]): Active | Drug uptake (Intestine): 35.7% | SUV (Cerebrum [35]): 1.11 | SUV (Brain [36]): 1.7 | Ratio (Brain [37]): 0.65 | Ratio (Cerebellum [38]): 0.61 | SUV (Cerebellum [39]): 1.75 | Drug uptake (Thalamus [40]): Active | SUV (Cortex [41]): 1.77 | Drug uptake (Cerebellum [42]): Not Active | SUV (Blood [43]): 0.39 | Ratio (Hippocampus [44]): 0.6 | Drug uptake (Striatum [45]): Not Active | SUV (Blood [46]): 0.28 | remaining at 0.5 h [47]: 69.7%
SMILES: [11CH3]Oc1c(F)ccc(F)c1C1CCN(c2ccn3c(CC4CC4)nnc3c2Cl)CC1
